Results on 3 molecules are retold here after US20150297564A1 (CORNELL UNIVERSITY, priority 2014, published 2015).

For series [1], the system named is GKO mice. Kind of series: Off-target toxicity in GKO mice (plasma ALT, AKP; liver LDH, GSR). It is filed as in vivo, mouse. The following applies: 50 mg/kg i.p., 1 hour. As for the experimental part: (§1) Ebselen was dissolved in dimethyl sulfoxide (DMSO) and injected with saline (1:1 by volume) together. The same volume of DMSO and saline was used as the solvent control. Blood glucose concentrations were measured by clipping tails and using the Glucometer Elite system (Bayer, Elkhart, Ind.). Plasma insulin concentrations were determined using a rat/mouse Insulin ELISA kit with mouse insulin as standards (Crystal Chem, Downers Grove, Ill.).
(§2) Islet GK activity was assayed at 28° C. by measuring absorbance increases of NADPH at 340 nm in a coupled enzyme system. One unit of GK activity was defined as the amount that catalyzes the formation of 1 μmole of glucose 6-phosphate per minute. Islet and liver LDH activities were measured using a kit from Sigma according to the manufacturer's instructions. Islet and liver GSR activities were measured as previously-described (Zhu et al., “Double Null of Selenium-Glutathione Peroxidase-1 and Copper, Zinc-Superoxide Dismutase Enhances Resistance of Mouse Primary Hepatocytes to Acetaminophen Toxicity,” Exp. Biol. Med. (Maywood) 231:545-552 (2006), which is hereby incorporated by reference in its entirety) and one unit of activity was defined as 1 nmol of glutathione disulfide reduced per minute. Plasma ALT activity was assayed using a kit (Thermo Scientific, Waltham, Mass.) according to the manufacturer's instructions. Plasma AKP activity was measured by the hydrolysis of p-nitrophenol phosphate to p-nitrophenol, and the enzyme activity unit was defined as the amount of activity that releases 1 μmol of p-nitrophenol per minute at 30° C. (Bowers et al., “A Continuous Spectrophotometric Method for Measuring the Activity of Serum Alkaline Phosphatase,” Clin. Chem. 12:70-89 (1966), which is hereby incorporated by reference in its entirety).

Series [2] deals with intracellular ROS. Description: Islet intracellular ROS (DCFH-DA probe). To be noted: GKO islets, DCF probe. It is filed as cell-based, mouse. As for the experimental part: Islet ROS levels were determined using the fluorescent probe, 2′,7′-dichlorofluorescin diacetate (“DCFH-DA”). Briefly, the treated islets were washed and incubated with DCFH-DA (20 μM) for 10 min at 37° C. After removal of the probe, cells were washed with pre-warmed PBS. Fluorescence was monitored at 488 nm excitation and 525 nm emission wavelengths.

Series [3] has as its system GKO mice. Description: Glucose tolerance test (GTT) in GKO mice. It is filed as in vivo, mouse. The following applies: fasted GKO mice, 50 mg/kg i.p., glucose 1 g/kg. As for the experimental part: as §1
Series [4] deals with GK. Kind of series: Islet GK enzyme activity after treatment. It counts as cell-based, mouse.
From the text: (§3) All chemicals were purchased from Sigma (Saint Louis, Mo.) unless indicated otherwise. Detailed protocols, reagents, and instruments for islet isolation, culture, and insulin secretion were the same as described previously (Wang et al., “Molecular Mechanisms for Hyperinsulinaemia Induced by Overproduction of Selenium-Dependent Glutathione Peroxidase-1 in Mice,” Diabetologia 51:1515-1524 (2008), which is hereby incorporated by reference in its entirety). Briefly, Langerhans' islets were isolated from the WT, GKO, SKO, and dKO mice using a standard procedure (Gotoh et al., “An Improved Method for Isolation of Mouse Pancreatic Islets,” Transplantation 40:437-438 (1985), which is hereby incorporated by reference in its entirety) with minor modifications. Isolated islets (50 per sample, n=3 per group) were recovered in RPMI 1640 (Gibco, Grand Island, N.Y.) with 5.5 mM glucose and 10% FBS for 2 hours before treatment. For the islet experiments, ebselen, CuDIPs, and Se (sodium selenite) were used at 50, 10, and 0.1 μM and prepared in DMSO, ethanol, and saline, respectively. The same amounts of vehicle were used as the respective controls. The chemicals were removed after 5 hour incubation, and the islets were transferred to Krebs-Henseleit buffer for 30 min and then incubated for 60 min with 2.8 or 16.7 mM glucose in the same buffer. The supernatants were collected for insulin analysis and the islets were used for mRNA, protein, and enzyme activity analyses.
as §2

Series [5] relates to lactate dehydrogenase (LDH). Description: Islet LDH activity. The following applies: WT and GKO islets. It is filed as cell-based, mouse. As for the experimental part: as §2
For series [6] the following is noted: i.p. in 4% w/v hydroxypropyl-β-cyclodextrin to C57BL/6 mice or suspended in water orally to humans; cited from earlier work.
Series [7] concerns PDX1. Kind of series: Islet PDX1 protein level (Western blot). It is filed as cell-based, mouse.
From the text: as §3
(§4) Islet samples used for Western blot analysis were homogenized in phosphate buffer (50 mM, pH 7.4) containing 0.1% Triton X-100 and protease inhibitor mixture (AEBSF, aprotinin, bestatin hydrochloride, E-64-[N-(transepoxysuccinyl)-L-leucine 4-guanidinobutylamide], leupeptin, and pepstatin A). The homogenates were centrifuged at 14000×g for 10 min at 4° C. A total of 10 μg of protein per lane was subjected to Western blot analysis (McClung et al., “Development of Insulin Resistance and Obesity in Mice Overexpressing Cellular Glutathione Peroxidase,” Proc. Natl. Acad. Sci. USA 101:8852-8857 (2004), which is hereby incorporated by reference in its entirety). After the gel electrophoresis, the separated proteins were transferred onto a protran BA85 nitrocellulose membrane (Schleicher Schuell Bioscience, Keene, N.H.). The membranes were incubated first with respective primary antibodies (rabbit anti-GLUT2, anti-PDX1, and anti-UCP2, Millipore, Billerica, Mass.), and thereafter the second antibody against rabbit IgG (Bio-Rad, Hercules, Calif.). For loading and transfer normalization, the rabbit anti-β-actin antibody (Cell Signaling, Beverly, Mass.) was used. An enhanced chemiluminescent kit (Pierce, Rockford, Ill.) was used for detection of the band intensity.

For series [8], the system named is GKO mice. Description: In vivo GSIS test in GKO mice (plasma insulin). On the set-up: species or system mouse. To be noted: fasted GKO mice. As for the experimental part:
as §1

For series [9], the target named is T1, glutathione reductase (GSR) (Mus musculus, UniProt P47791).
T1 construct: from tissue; host or cells: isolated pancreatic islets of WT and GKO mice
T1 sequence (P47791 27-500): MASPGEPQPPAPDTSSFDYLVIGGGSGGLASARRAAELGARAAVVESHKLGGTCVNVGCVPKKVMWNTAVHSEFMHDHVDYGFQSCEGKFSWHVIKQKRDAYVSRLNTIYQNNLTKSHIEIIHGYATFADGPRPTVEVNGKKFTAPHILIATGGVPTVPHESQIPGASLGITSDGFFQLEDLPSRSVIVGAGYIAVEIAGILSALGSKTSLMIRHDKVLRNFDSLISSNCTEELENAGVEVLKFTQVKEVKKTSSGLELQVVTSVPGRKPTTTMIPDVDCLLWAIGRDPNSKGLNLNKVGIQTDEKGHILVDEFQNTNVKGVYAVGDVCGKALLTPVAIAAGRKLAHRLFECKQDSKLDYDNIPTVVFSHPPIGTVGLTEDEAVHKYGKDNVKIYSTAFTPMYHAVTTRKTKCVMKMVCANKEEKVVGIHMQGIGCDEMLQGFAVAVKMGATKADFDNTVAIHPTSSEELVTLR
Description: Islet GSR activity. It counts as cell-based. To be noted: WT and GKO islets. As for the experimental part: as §2

For series [10], the system named is GLUT2. Description: Islet GLUT2 protein level (Western blot). It is filed as cell-based, mouse.
From the text: as §3, §4
Background: A western blot detects proteins with antibodies after separation by electrophoresis.

The test system of series [11] is gk, glut2, pdx1, ucp2 and genes in the ARE, GR, Wnt and NFAT pathways. Description: Real time Q-PCR of islet mRNA levels (GSIS regulators, ARE, GR, Wnt, NFAT pathway genes). The following applies: dKO islets. It counts as cell-based, mouse. The text has this: All chemicals were purchased from Sigma (Saint Louis, Mo.) unless indicated otherwise. Detailed protocols, reagents, and instruments for islet isolation, culture, and insulin secretion were the same as described previously (Wang et al., “Molecular Mechanisms for Hyperinsulinaemia Induced by Overproduction of Selenium-Dependent Glutathione Peroxidase-1 in Mice,” Diabetologia 51:1515-1524 (2008), which is hereby incorporated by reference in its entirety). Briefly, Langerhans' islets were isolated from the WT, GKO, SKO, and dKO mice using a standard procedure (Gotoh et al., “An Improved Method for Isolation of Mouse Pancreatic Islets,” Transplantation 40:437-438 (1985), which is hereby incorporated by reference in its entirety) with minor modifications. Isolated islets (50 per sample, n=3 per group) were recovered in RPMI 1640 (Gibco, Grand Island, N.Y.) with 5.5 mM glucose and 10% FBS for 2 hours before treatment. […]
Total RNA was extracted from islets using Trizol reagent (Invitrogen, Carlsbad, Calif.). […] Relative mRNA levels were determined by real time Q-PCR (7900HT; Applied Biosystems, Foster City, Calif.) as previously described (Pepper et al., “Impacts of Dietary Selenium Deficiency on Metabolic Phenotypes of Diet-Restricted GPX1-Overexpressing Mice,” Antioxid. Redox Signal. 14:383-390 (2011), which is hereby incorporated by reference in its entirety).

In series [12] the test system is islets isolated from WT, GKO, SKO, and dKO mice. Description: Glucose-stimulated insulin secretion (GSIS) of isolated islets. It counts as cell-based, mouse. To be noted: for GSIS (insulin secretion) versus solvent control: 16.7 mM glucose, 5 hour pre-treatment.
From the text: as §3

Series [13] has as its system UCP2. Description: Islet UCP2 protein level (Western blot). It is filed as cell-based, mouse.
From the text: as §3, §4

Regarding `O=c1c2ccccc2[se]n1-c1ccccc1` [ebselen], the “hepatic GSR activity versus control” value in series [1] is “no differences”. Further, the “hepatic LDH activity versus control” value in series [1] is given as “no differences”. In addition, the “plasma alanine aminotransferase (ALT) activity versus control” value in series [1] is given as “no differences”. In addition, the “plasma alkaline phosphatase (AKP) activity versus control” value in series [1] is “no differences”. The “decrease of intracellular ROS” value in series [2] is 74%. For the same molecule, the glucose clearance improved in series [3] (15 min) is reported as 17%; in series [3] (30 min) it was 18%; in series [3] (60 min), 21%. Moreover, the “GK activity elevation versus control” value turned out to be 20% in [4] (GKO islets), 86% in series [4] (SKO islets), 74% in series [4] (WT islets) and 58% in [4] (dKO islets). In addition, the “effect on LDH activity” value in [5] was “no effect”. Moreover, the absorption result in [6] is given as “absorbed to blood”. The blood-brain barrier crossing result in series [6] is “crossed the blood-brain barrier”. Also, the “PDX1 protein elevation versus control” value was 4.0 fold in series [7] (GKO islets), 3.2 fold in series [7] (SKO islets) and 5.5 fold in [7] (WT islets). For the same molecule, the “elevation of plasma insulin concentration versus control” value was found to be 95% in [8] (50 mg/kg i.p. 1 hour before glucose challenge, 0 min (baseline)); 1.2 fold in series [8] (50 mg/kg i.p., 15 min after the glucose challenge); 91% in series [8] (50 mg/kg i.p., 30 min after the glucose challenge). Further, the “effect on GSR activity” value in [9] is listed as “no effect”. The “GLUT2 protein elevation versus control” value is reported as 2.1 fold in [10] (GKO islets), 6.4 fold in series [10] (SKO islets), 4.9 fold in series [10] (WT islets) and 85% in series [10] (dKO islets).

In the case of copper diisopropylsalicylate [CuDIPs], the “GK activity change versus control (direction)” value was “decrease” in series [4] (GKO islets) and “Neither CuDIPs nor Na2SeO3 affected” in series [4] (dKO islets). Also, the “PDX1 protein elevation versus control” value in series [7] (SKO islets) came to 2.4 fold. For the same molecule, the “PDX1 protein change versus control (direction)” value in series [7] (WT islets) is “increased”; in series [7] (dKO islets) it was “Neither CuDIPs nor Na2SeO3 affected”. In series [11], the “expression of genes in the four pathways (ARE, GR, Wnt, NFAT) versus controls” value is on record as “suppressed”. For the same molecule, in series [12] (SKO islets, 2.8 mM glucose), the “baseline insulin secretion versus solvent control” value is on record as “promoted”. Besides, the entries for the “GSIS (insulin secretion) versus solvent control” value in series [12] (SKO islets) and in series [12] (WT islets) were “promoted” and “no effect”, respectively. The figures for the “GLUT2 protein change versus control (direction)” value in [10] (GKO islets), in [10] (WT islets) and in series [10] (dKO islets) were “increase”, “increased” and “Neither CuDIPs nor Na2SeO3 affected”, respectively. Further, the “GLUT2 protein elevation versus control” value in [10] (SKO islets) is given as 63%. For the same molecule, the “UCP2 protein decrease versus control” value in series [13] (SKO islets) came to 78%. In addition, the “UCP2 protein change versus control (direction)” value in [13] (WT islets) is “increased”; in series [13] (dKO islets) it was “Neither CuDIPs nor Na2SeO3 affected”.

For the molecule `O=[Se]([O-])[O-].[Na+].[Na+]` [Na2SeO3, sodium selenite], the “GK activity change versus control (direction)” value in [4] (GKO islets) is “increased”; in series [4] (SKO islets), “decreased”; in [4] (dKO islets) it was “Neither CuDIPs nor Na2SeO3 affected”. The “PDX1 protein change versus control (direction)” value in series [7] (dKO islets) is listed as “Neither CuDIPs nor Na2SeO3 affected”. In addition, the “GSIS (insulin secretion) versus solvent control” value is on record as “did not affect” in [12] (GKO islets), “elevated” in series [12] (SKO islets), “did not affect” in series [12] (WT islets) and “elevated” in series [12] (dKO islets). The “GLUT2 protein change versus control (direction)” value in [10] (dKO islets) is recorded as “Neither CuDIPs nor Na2SeO3 affected”. Also, in series [13] (dKO islets), the “UCP2 protein change versus control (direction)” value is on record as “Neither CuDIPs nor Na2SeO3 affected”.
